Source: PubChem BioAssay (NCI)
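Method: 48-hour compound exposure of cells in 96-well plates, five concentrations, linear interpolation of endpoints. The concentration for 50% growth inhibition is given as GI50. TGI marks complete inhibition of growth.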

Columns and labels:
Experiment in all cases: NCI-60 cell line screen, 48 h
786-0 renal = tested on: 786-0 renal
HCC-2998 colon = tested on: HCC-2998 colon
SW-620 colon = tested on: SW-620 colon
PC-3 prostate = tested on: PC-3 prostate
SF-268 CNS = tested on: SF-268 CNS
UACC-62 melanoma = tested on: UACC-62 melanoma
SNB-19 CNS = tested on: SNB-19 CNS
A498 renal = tested on: A498 renal
CCRF-CEM leukemia = tested on: CCRF-CEM leukemia
HL-60(TB) leukemia = tested on: HL-60(TB) leukemia

Compound | TGI (786-0 renal) | TGI (HCC-2998 colon) | TGI (SW-620 colon) | TGI (PC-3 prostate) | TGI (SF-268 CNS) | TGI (UACC-62 melanoma) | TGI (SNB-19 CNS) | TGI (A498 renal) | TGI (CCRF-CEM leukemia) | TGI (HL-60(TB) leukemia) | GI50 (786-0 renal) | GI50 (HCC-2998 colon) | GI50 (SW-620 colon) | GI50 (PC-3 prostate) | GI50 (SF-268 CNS) | GI50 (UACC-62 melanoma) | GI50 (SNB-19 CNS) | GI50 (A498 renal) | GI50 (CCRF-CEM leukemia) | GI50 (HL-60(TB) leukemia)
Nc1nc2c(c(=O)[nH]1)N=C(COP(=O)(O)OP(=O)(O)O)CN2 | > 100 µM | > 100 µM | > 100 µM | > 100 µM | > 100 µM | > 100 µM | > 100 µM | > 100 µM | > 100 µM | > 100 µM |  |  |  |  |  |  |  |  |  | 
CC(=O)Nc1c(I)c(C(=O)O)c(I)c(N(C)C(C)=O)c1I | > 100 µM | > 100 µM | > 100 µM | > 100 µM | > 100 µM | > 100 µM | > 100 µM | > 100 µM | > 100 µM | > 100 µM | > 100 µM | > 100 µM | > 100 µM | > 100 µM | > 100 µM | > 100 µM | > 100 µM | > 100 µM | > 100 µM | > 100 µM
Cc1ccn2c(-c3csc(Nc4cccc(O)c4)n3)c(C)nc2c1 | 8.81 µM | 17.4 µM | 26.8 µM | 29.6 µM | 42.6 µM | 19.2 µM | 77.4 µM | 32.1 µM | > 33 µM | 22.1 µM | 1.8 µM | 2.81 µM | 0.337 µM | 0.609 µM | 0.785 µM | 0.712 µM | 4.66 µM | 0.926 µM | 0.48 µM | 0.343 µM
O=C(NCCSSCCNC(=O)/C(Cc1ccc(O)c(Br)c1)=N/O)/C(Cc1ccc(O)c(Br)c1)=N/O | 8.49 µM | 8.11 µM | 14.3 µM | 8.21 µM | 9.75 µM | 7.32 µM | 7.96 µM | 14.7 µM | > 18.3 µM | > 22.6 µM |  |  |  |  |  |  |  |  |  | 
O=Cc1c[nH]c2ccc(-c3csc4ccccc34)cc12 | 41.9 µM | > 100 µM | > 100 µM | > 100 µM | 54.3 µM | 34.6 µM | > 100 µM | 9.44 µM | 10.6 µM | 8.38 µM | 4.26 µM | 15.5 µM | 4.31 µM | 3.02 µM | 4.42 µM | 3.02 µM | 5.98 µM | 2.86 µM | 2.64 µM | 2.48 µM
NS(=O)(=O)c1cccc(-c2cc3ccncc3cc2OCc2ccccc2)c1 | > 20.7 µM | > 25 µM | > 25 µM | > 25 µM | > 25 µM | > 25 µM | > 25 µM | 13 µM | > 25 µM | 13.5 µM | 7.37 µM | 15.2 µM | 9.92 µM | 10.8 µM | 14.5 µM | 9.76 µM | 19.1 µM | 2.17 µM | 8.43 µM | 4.64 µM
O=[N+]([O-])c1ccc(Oc2cccc(C(F)(F)F)c2)c([N+](=O)[O-])c1 | 9.81 µM | 6.51 µM | 10.1 µM | 16.4 µM | 12.2 µM | 15.2 µM | 18.3 µM | 25.3 µM | 3.18 µM | 4.65 µM | 3.24 µM | 2.3 µM | 0.451 µM | 4.2 µM | 3.17 µM | 3.78 µM | 5.25 µM | 12.7 µM | 0.296 µM | 1.7 µM
O=C(CCCCCNC1=CC(=O)c2ccccc2C1=O)NCCC[Te]c1ccccc1 | 4.17 µM | 2.44 µM |  | 2.58 µM | 1.41 µM | 3.37 µM | 9.65 µM | 1.66 µM | 0.774 µM | 4.4 µM | 2 µM | 0.798 µM |  | 0.25 µM | 0.359 µM | 1.32 µM | 1.64 µM | 0.302 µM | 0.251 µM | 0.315 µM
C[C@@H](Oc1cc(-c2cnn(C3CC4(CNC4)C3)c2)cnc1N)c1c(Cl)ccc(F)c1Cl | 19.1 µM | 19.7 µM | 11.9 µM | 15.6 µM | 18.2 µM | 13.8 µM | 24.3 µM | 4.81 µM | 6.97 µM | 6.76 µM | 5.6 µM | 5.42 µM | 1.31 µM | 2.64 µM | 4.19 µM | 3.64 µM | 9.7 µM | 1.1 µM | 0.681 µM | 1.59 µM
COc1ccc(C2=NNC(c3cc(Cc4ccc(O)c(C5CC(c6ccc(OC)cc6)=NN5)c4)ccc3O)C2)cc1 (stereo not drawn) | 93.4 µM | > 100 µM | > 100 µM | > 100 µM | > 100 µM | 99.6 µM | > 100 µM | > 100 µM | > 100 µM | > 100 µM | 8.39 µM | 46 µM | 7.96 µM | 61.4 µM | 17.9 µM | 10.6 µM | 6.89 µM | 71.9 µM | 3.85 µM | 23.4 µM
Nc1cccc2c1CN(C1CCC(=O)NC1=O)C2=O (stereo not drawn) | > 100 µM | > 100 µM | > 100 µM | > 100 µM | > 100 µM | > 100 µM | > 100 µM | > 100 µM | > 100 µM | > 100 µM | > 100 µM | > 100 µM | > 100 µM | > 100 µM | > 100 µM | > 100 µM | > 100 µM | > 100 µM | > 100 µM | > 100 µM
Cc1cc(Br)c2nsnc2c1[N+](=O)[O-] | 13.7 µM | 4.44 µM | 15.1 µM | 15.8 µM | 5.16 µM | 20 µM | 20.6 µM | 15 µM | 5.44 µM | 4.56 µM | 3.96 µM | 2.07 µM | 2.15 µM | 4.49 µM | 2 µM | 7.13 µM | 7.63 µM | 5.06 µM | 2.16 µM | 1.86 µM
CC[C@@]1(OC(=O)C(N)CCC(=O)O)C(=O)OCc2c1cc1n(c2=O)Cc2cc3ccccc3nc2-1 (stereo partly drawn) | 0.159 µM | 3.02 µM | > 21.1 µM | > 100 µM | 14.7 µM | 0.16 µM | > 30.7 µM | 0.965 µM | 0.247 µM | 0.508 µM |  |  |  |  |  |  |  |  |  | 
C=C1C(=O)O[C@H]2[C@H]1CC/C(COC(=O)c1cccc3ccccc13)=C\CC[C@@]1(C)O[C@@H]21 | 3.22 µM | 3.76 µM | 2.87 µM | 3.14 µM | 3.38 µM | 2.94 µM | 3.19 µM | 28.4 µM | 12.4 µM | 7.56 µM | 1.69 µM | 1.98 µM | 1.08 µM | 1.57 µM | 1.6 µM | 1.47 µM | 1.57 µM | 14.5 µM | 0.327 µM | 1.66 µM
